SMILES strings stand for the structures.

A short description of this data set: Henry solubility constant Hcp at 310 K (mol/(m3 Pa)). As to conditions: reference: van Ruth et al. (2002).
In the case of `CCCCCCO` [1-hexanol], the “Henry solubility constant Hcp at 310 K” value was 0.25. For the compound `CCCO` [1-propanol], the “Henry solubility constant Hcp at 310 K” value stood at 0.32. As to `CCCCCCCCC(C)=O` [2-decanone], the “Henry solubility constant Hcp at 310 K” value came out at 0.018.

For the compound `CCCCCC(C)=O` [2-heptanone], the “Henry solubility constant Hcp at 310 K” value is 0.039.

Take `CCCCCCCC(C)O` (stereo not given) [2-nonanol]: the “Henry solubility constant Hcp at 310 K” value was 0.065. `CCCCCCC(C)=O` [2-octanone]: the “Henry solubility constant Hcp at 310 K” value was found to be 0.029. Take `CCCC(C)O` (stereo not given) [2-pentanol]: the “Henry solubility constant Hcp at 310 K” value amounted to 0.3. `CC(C)CCO` [3-methyl-1-butanol]: the “Henry solubility constant Hcp at 310 K” value came to 0.33.

As for `CCCCOC(C)=O` [butyl ethanoate], the “Henry solubility constant Hcp at 310 K” value was determined as 0.028. The value for `CSC` [dimethyl sulfide] was 0.0064; that for `CCCC(=O)OCC` [ethyl butanoate] was 0.021. As for `CCOC(C)=O` [ethyl ethanoate], the figure is 0.039. In the case of `CCCCCCC=O` [heptanal], the “Henry solubility constant Hcp at 310 K” value stood at 0.02. Regarding `CCCCCCCC=O` [octanal], the “Henry solubility constant Hcp at 310 K” value was determined as 0.021. Turning to `CCCOC(C)=O` [propyl ethanoate], the “Henry solubility constant Hcp at 310 K” value came to 0.039.
